Measured values taken from article PMC9775191, “A Subset Screen of the Compounds Australia Scaffold Library Identifies 7-Acylaminodibenzoxazepinones as Potent and Selective Hits for Anti-Giardia Drug Discovery” (Biomedicines, 2022).

Test system: G. duodenalis BRIS/91/HEPU/1279
Assay: Primary Giardia screen at 10 µM (live-cell imaging, automated counting)
Assay type: cell-based, Giardia duodenalis
Conditions: for % Inhibition n=1 48h / % Inhibition n=1 24h: first singlicate assay; for % Inhibition n=2 24h / % Inhibition n=2 48h: re-assessment
How it was run: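 Compound added to 10 μM final in medium with 0.2% DMSO, one well each; plates then held in sealed chambers at 3% O2, 5% CO2 in N2; growth imaged and counted automatically at 24 and 48 h; values normalised to vehicle wells minus media blank.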

Row | Compound | % Inhibition n=1 48h [%] | further results
1 | COCCN1CCCN(C(=O)C2CCCN(S(C)(=O)=O)C2)CC1 (centres unmarked) [SN00782901] | 15.1 | 
2 | COCC1CN(C(=O)c2ccc(OC)cc2)CC12CCOCC2 (centres unmarked) [SN00801332] | 24.3 | 
3 | Cc1cccc(CN2CCC3(CC2)N=C(c2ccc(C)c(C)c2)C(=O)N3)c1 [SN00792562] | 12.3 | 
4 | CCOc1ccc(S(=O)(=O)N(C)Cc2c(C)nn(C)c2C)cc1 [SN00802962] | 2.3 | 
5 | Cc1noc(COC2CCCN(C(=O)c3nn(C)c4ccccc34)C2)n1 (centres unmarked) [SN00801154] | 0.0 | 
6 | O=C(Nc1cccnc1)C1=NN(Cc2ccccc2)C(=O)CC1 [SN00779378] | 15.0 | 
7 | Fc1cccc(Nc2c3c(nc4ccccc24)CCC3)c1 [SN00784170] | 66.2 | Average % Inhibition 24h: 2.3%; % Inhibition n=1 24h: 4.6%; % Inhibition n=2 24h: 0.0%; Average % Inhibition 48h: 55.5%; % Inhibition n=2 48h: 44.9%
8 | Cn1c(C2CCN(C(=O)Nc3ccccc3F)CC2)cc(=O)n2nccc12 [SN00798982] | 3.2 | 
9 | CC(C)Cn1cc2c3c(cccc31)CN(C(=O)Cc1cccs1)CC2 [SN00798552] | 35.1 | 
10 | CCN(CC)CCCC(C)NC(=O)c1cc(-c2ccco2)on1 (centres unmarked) [SN00802522] | 3.7 | 
11 | COc1ccc(C2NC(=O)NC(C)=C2C(=O)c2ccccc2)cc1 (centres unmarked) [SN00802824] | 12.9 | 
12 | Cc1nc(C)c2c(n1)N(CCN(C)C1CCCCC1)C(=O)CC2 [SN00802202] | 0.0 | 
13 | C[C@@]1(O)CCN(C(=O)c2cccc(F)c2)C[C@H]1N1CCCC1 (relative stereo) [SN00801211] | 0.0 | 
14 | Cc1ncc2c(n1)CN(C(C)c1nc(-c3cccs3)no1)CC2 (centres unmarked) [SN00807951] | 13.5 | 
15 | CN(C)C(=O)c1ccc(OC2CCN(Cc3ccccn3)C2)nc1 (centres unmarked) [SN00800120] | 6.6 | 
16 | Cc1ccnc(Nc2nc(C)c(C(=O)NC3CC3)s2)c1 [SN00797622] | 13.3 | 
17 | Cc1sc2nc(CN3CCC(C)CC3)nc(N(C)Cc3nc4ccsc4c(=O)[nH]3)c2c1C [SN00775403] | 11.1 | 
18 | COC(=O)c1cccc2c1CCCN2C(=O)C1CC(=O)N(CCc2ccccc2)C1 (centres unmarked) [SN00775178] | 0.0 | 
19 | Cc1csc(/C(=C\c2cc(C)n(-c3ccnn3C(C)C)c2C)CN)n1 [SN00770781] | 5.0 | 
20 | CCc1ccc(NC(=O)[C@@H]2c3cc(OC)c(OC)cc3C(=O)N3CCCC[C@@H]23)cc1 (relative stereo) [SN00784165] | 28.1 | 
21 | COCCOCC(C)NC(=O)Cc1csc(N2CCCNC2=O)n1 (centres unmarked) [SN00781237] | 11.2 | 
22 | O=C(c1cccc2[nH]ccc12)N1CCC(c2nc(-c3ccccc3)no2)C1 (centres unmarked) [SN00801115] | 23.0 | 
23 | Cc1ccc([C@@H]2C[C@H](c3ccccc3)n3nnnc3N2)cc1 (relative stereo) [SN00783518] | 40.1 | Average % Inhibition 24h: 10.7%; % Inhibition n=1 24h: 21.3%; % Inhibition n=2 24h: 0.0%; Average % Inhibition 48h: 20.0%; % Inhibition n=2 48h: 0.0%
24 | CN(C)c1nc(N(C)C)nc(N2CC(=O)N(c3ccc(Cl)c(Cl)c3)C2=N)n1 [SN00783378] | 16.0 | 
25 | CC(c1nnc(-c2cccs2)o1)N1CCc2cncnc2C1 (centres unmarked) [SN00783267] | 12.9 | 

Row | Compound | % Inhibition n=1 48h [%] | further results
26 | CCOc1ccc(-n2c(=O)c3sc4ncccc4c3n(CC(=O)N3CCCCC3)c2=O)cc1 [SN00790501] | 5.1 | 
27 | Cc1ccc(CNC(=O)C2CCN(c3ncccc3-n3cccc3)CC2)cc1 [SN00790865] | 0.0 | 
28 | CC(=O)Nc1nsc(N2CCCC(C(=O)NCc3ccccc3Cl)C2)n1 (centres unmarked) [SN00800180] | 5.9 | 
29 | CCOC(=O)N1CCN(c2cc(-c3nc(-c4cccc(OC)c4OC)no3)c3ccccc3n2)CC1 [SN00796395] | 18.1 | 
30 | COc1ccc(-n2nc(C(=O)NCc3ccc(C)cc3)c3c4ccccc4n(C)c3c2=O)cc1 [SN00785076] | 5.1 | 
31 | Cc1ccc(NS(=O)(=O)c2ccc(-n3cccn3)cc2)cc1 [SN00794732] | 6.0 | 
32 | CCCN1C(=O)c2c(C(=O)NCCc3ccccc3)ncn2CC1(C)C(=O)NCCC(C)C (centres unmarked) [SN00791583] | 9.0 | 
33 | CCOC(=O)c1ccccc1NC(=O)NC(c1ccccc1)c1nnc(-c2ccccc2)o1 (centres unmarked) [SN00792113] | 0.0 | 
34 | C=CCNC(=O)CCN1CCN(Cc2ccccc2)C1=O [SN00791850] | 0.0 | 
35 | O=C(CN1CCC(c2nc(-c3ccc(F)cc3)no2)CC1)NCc1ccccc1 [SN00799393] | 0.0 | 
36 | O=c1c2ccsc2ncn1Cc1noc(-c2ccsc2)n1 [SN00779979] | 0.0 | 
37 | COC(=O)c1c(C(=O)OC)c(-c2ccc(NS(=O)(=O)c3ccc(C)s3)cc2)n2c1CCC2 [SN00780656] | 9.3 | 
38 | Cc1ccc(CNC(=O)N2CCCN(c3ncccc3-c3nc(C4CC4)no3)CC2)cc1 [SN00800535] | 34.3 | 
39 | Cc1onc(-c2ccccc2)c1-c1nnc(CN2CCCN(CC(=O)NC(C)(C)C)CC2)o1 [SN00777957] | 2.0 | 
40 | COCCNC(=O)N1Cc2c(C)nn(-c3ccccc3)c2-n2cccc2C1c1cccc(C)c1 (centres unmarked) [SN00785355] | 10.0 | 
41 | CCc1nnc2n1CCN(Cc1csc(-c3ccsc3)n1)C2 [SN00782656] | 24.2 | 
42 | CCCC(=O)Nc1ccc2c(c1)CN(C(=O)Cc1ccccc1C)C(C(=O)N(C)C)C2 (centres unmarked) [SN00798922] | 11.7 | 
43 | CCOC(=O)c1ccc(Nc2c(-c3ccccc3)nc3[nH]cnn23)cc1 [SN00794007] | 0.0 | 
44 | CC(C)C(=O)N1CCc2c(c(COCc3ccccc3F)nn2C)C1 [SN00796410] | 0.0 | 
45 | O=c1c(Br)c(N2CCCCC2)cnn1-c1ccccc1 [SN00775416] | 8.1 | 
46 | O=C(Nc1nc(-c2cc3ccccc3oc2=O)cs1)c1cccc(C(F)(F)F)c1 [SN00769798] | 0.0 | 
47 | CCc1nc(CN2CCCN(C(=O)C3CCC3)CC2)cs1 [SN00777931] | 3.9 | 
48 | Cc1oc(-c2ccco2)nc1CN1CCc2cnc(C(C)C)nc2C1 [SN00807954] | 0.1 | 
49 | Cc1cc2n(n1)CCCN2CC(=O)N1CCN(c2ccc(Cl)cc2)CC1 [SN00791741] | 2.4 | 
50 | O=C(CCNS(=O)(=O)c1cccnc1)N1CCCC(c2nc3ccccc3o2)C1 (centres unmarked) [SN00780535] | 0.0 | 

Row | Compound | % Inhibition n=1 48h [%] | further results
51 | Cc1csc(C2CCN(C(=O)c3ccccc3[N+](=O)[O-])CC2)n1 [SN00781474] | 8.2 | 
52 | O=C(c1ccc2nncn2c1)N1CCc2[nH]nc(C(F)(F)F)c2C1 [SN00779777] | 3.6 | 
53 | CC(=O)c1cccc(NC(=O)CN2CCC(c3nc(-c4ccccc4)no3)CC2)c1 [SN00799373] | 0.0 | 
54 | Cc1cccc(-n2c(CN3CCN(C(=O)NCC4CCCO4)CC3)nc3cccnc32)c1 (centres unmarked) [SN00796109] | 0.7 | 
55 | CNC(=O)N1CCC(c2nc(C)c(C(=O)NCCCOC)s2)CC1 [SN00798240] | 6.4 | 
56 | Cc1ccc(-c2ncc(C(=O)NC3CCCCCC3)c(C)n2)cc1 [SN00790958] | 0.0 | 
57 | COc1ccc(OC)c(C2C(C(=O)c3ccco3)=C(O)C(=O)N2c2cc(C)on2)c1 (centres unmarked) [SN00780182] | 21.6 | 
58 | c1ccc(-c2cn3nc(-c4ccccc4)n4c3c2CCCC4)cc1 [SN00776412] | 0.0 | 
59 | O=C(Nc1cnc(-c2ccccc2)nc1)c1ccccc1C(F)(F)F [SN00799772] | 0.0 | 
60 | Cc1nc2c(c(=O)n1CC(=O)Nc1cccc(F)c1)CCN(Cc1ccccc1)C2 [SN00795483] | 0.0 | 
61 | O=S(=O)(c1cccs1)N1CCc2[nH]cnc2C1 [SN00798784] | 0.0 | 
62 | CCn1cc(C(=O)NCc2ccccc2)c(=O)c2ccc(C)nc21 [SN00792575] | 6.1 | 
63 | O=C(CCN1C(=O)CCC1=O)N1CCCC(N2CCCCCC2)C1 (centres unmarked) [SN00772233] | 7.1 | 
64 | NC(=O)c1cnc(N2CCC3(CC2)CC3c2nc(-c3cccc(Cl)c3)no2)c(Cl)c1 (centres unmarked) [SN00773335] | 0.0 | 
65 | CCCn1cc(S(=O)(=O)c2ccc(Cl)cc2)c(=O)c2cc(F)c(N3CCOCC3)cc21 [SN00787800] | 0.0 | 
66 | Cc1ccc2c(=O)c(C(=O)N3CCSCC3)c[nH]c2n1 [SN00784417] | 11.0 | 
67 | CC(=O)c1c(C)[nH]c(C(=O)Nc2nc(-c3ccco3)c(-c3ccco3)s2)c1C [SN00769770] | 59.6 | Average % Inhibition 24h: 25.0%; % Inhibition n=1 24h: 21.9%; % Inhibition n=2 24h: 28.1%; Average % Inhibition 48h: 52.7%; % Inhibition n=2 48h: 45.9%
68 | COc1cc(C(=O)N2C(=O)N(c3ccc(F)cc3)C3(C)CC2c2ccccc2O3)cc(OC)c1OC (centres unmarked) [SN00784661] | 3.1 | 
69 | CSCCC1COC(c2cccn2C)=N1 (centres unmarked) [SN00784837] | 0.0 | 
70 | O=C(Cc1ccc2c(c1)CCC2)N1CCC(n2cncn2)CC1 [SN00783222] | 6.3 | 
71 | Cc1ccc(CNC(=O)c2ccc3c(c2)CCN3S(=O)(=O)c2ccc(C)cc2)cc1 [SN00785985] | 38.5 | 
72 | CCc1nc(-c2cc(S(=O)(=O)N(C)c3cccc(C)c3)c(C)s2)no1 [SN00789104] | 48.8 | Average % Inhibition 24h: 14.2%; % Inhibition n=1 24h: 28.4%; % Inhibition n=2 24h: 0.0%; Average % Inhibition 48h: 30.8%; % Inhibition n=2 48h: 12.8%
73 | C=C(C)CN1Cc2ccccc2CC1c1nnc(CC)o1 (centres unmarked) [SN00783147] | 0.0 | 
74 | Cc1ccc(S(=O)(=O)Nc2ccc3c(c2)N(C(=O)c2ccco2)CCC3)cc1C [SN00792238] | 12.2 | 
75 | Cc1nn(C)c(N2CCN(C(C)c3nc4ccccc4s3)CC2)c1[N+](=O)[O-] (centres unmarked) [SN00772279] | 10.6 | 
